Columns and labels:
[1] = molecular target: T1, JAK1 JH2 pseudokinase domain (Homo sapiens, UniProt P23458); experiment: KdELECT competition binding assay, JAK1 JH2; conditions: read-out: JAK Binding Selectivity (Kd) Pseudokinase Domain (JH2) JAK1
T1 construct: purchased Eurofins DiscoverX Corporation (contract assay)
Method: The KdELECT competition assays were performed to test the binding affinity of compounds to the JH1 kinase region or JH2 pseudokinase region in TYK2 or JAK by ligand competition with JH1 or JH2 protein segments. The assay was carried out at Eurofins DiscoverX Corporation following the established standard protocol (DiscoverX, San Diego, CA). In this assay, compounds that bind to the kinase or pseudokinase protein regions prevent the protein binding to the immobilized ligand and reduce the amount of kinase matter captured on the solid surface. […] Dissociation constants (Kds) for test compound-kinase interactions are calculated by measuring the amount of kinase captured on the solid support as a function of the test compound concentration. […] The ligated beads were blocked with excess biotin and washed with blocking buffer to remove unbound ligand and to reduce nonspecific binding. […] All reactions were performed in polypropylene 384-well plates with a final volume of 20 μL. […] The beads were then re-suspended in the elution buffer and incubated at room temperature with shaking for 30 minutes. The kinase concentration in the eluant was measured by qPCR. Two replicates were performed and averaged to obtain the Kd measurement.

[2] = system: IFNα-induced TYK2-mediated IRF activity in Jurkat-Dual T cells; experiment: Jurkat T cell reporter assay for IFNα-induced TYK2-mediated IRF activity; assay type: cell-based; conditions: Homo sapiens, SEAP
From the text: Jurkat-Dual™ T cells (In vivogen, jktd-isnf) were purchased from In vivogen (San Diego, CA). The cells feature the dual-reporter system, with a Lucia luciferase gene driven by an interferon-β (IFN-β) minimal promoter fused to the NFκB consensus transcriptional response element and the c-Rel binding site, as well as a secreted embryonic alkaline phosphatase (SEAP) reporter gene under the control of an IFN-stimulated gene 54 (ISG54) minimal promoter in conjunction with five IFN-stimulated response elements. With the dual-reporter design, Jurkat-Dual™ cells allow the simultaneous investigation of both the NFκB pathway, by monitoring the Lucia luciferase, and the interferon regulatory factor (IRF) pathway, by assessing the activity of SEAP. In this study, the Jurkat-Dual™ T cells were plated at a sterilized U-shaped 96-well plate in RPMI (Thermo Fisher) containing 10% heat-inactivated Fetal Bovine Serum (FBS) (Thermo Fisher) and 100 U/mL Penicillin-Streptomycin (Thermo Fisher) at a density of 2.0 × 10^6/mL. Seeded cells were treated with serially diluted compounds and stimulated with 80 ng/mL human recombinant IFNα (Biolegend, # 592702) overnight in a humidified, 5% CO2 cell culture incubator at 37°C. Activity of SEAP was then detected from the cell cultured supernatant according to the manufacturer’s instructions.

[3] = system: IFNα-induced CXCL10 production in human whole blood; experiment: IFNα-induced CXCL10 production in human whole blood; assay type: cell-based; conditions: human whole blood, IFNα 16 hours; read-out: TYK2-associated IFNα-induced-CXCL10 Production in Human Whole Blood: IC50
Method: Human whole blood [drawn with Ethylenediaminetetraacetic acid (EDTA) as anti-coagulant] was obtained from Zen-Bio Inc. (Durham, NC). […] The plasma was collected for detection of C-X-C motif chemokine 10 (CXCL10, IP10) secretion. CXCL10 was measured by Human CXCL10/IP-10 AlphaLISA Kit (PerkinElmer, #AL259 C/F) according to the manufacturer’s instructions.

hERG = hERG (Homo sapiens, UniProt Q12809); experiment: hERG IC50
hERG, sequence (Q12809 whole entry): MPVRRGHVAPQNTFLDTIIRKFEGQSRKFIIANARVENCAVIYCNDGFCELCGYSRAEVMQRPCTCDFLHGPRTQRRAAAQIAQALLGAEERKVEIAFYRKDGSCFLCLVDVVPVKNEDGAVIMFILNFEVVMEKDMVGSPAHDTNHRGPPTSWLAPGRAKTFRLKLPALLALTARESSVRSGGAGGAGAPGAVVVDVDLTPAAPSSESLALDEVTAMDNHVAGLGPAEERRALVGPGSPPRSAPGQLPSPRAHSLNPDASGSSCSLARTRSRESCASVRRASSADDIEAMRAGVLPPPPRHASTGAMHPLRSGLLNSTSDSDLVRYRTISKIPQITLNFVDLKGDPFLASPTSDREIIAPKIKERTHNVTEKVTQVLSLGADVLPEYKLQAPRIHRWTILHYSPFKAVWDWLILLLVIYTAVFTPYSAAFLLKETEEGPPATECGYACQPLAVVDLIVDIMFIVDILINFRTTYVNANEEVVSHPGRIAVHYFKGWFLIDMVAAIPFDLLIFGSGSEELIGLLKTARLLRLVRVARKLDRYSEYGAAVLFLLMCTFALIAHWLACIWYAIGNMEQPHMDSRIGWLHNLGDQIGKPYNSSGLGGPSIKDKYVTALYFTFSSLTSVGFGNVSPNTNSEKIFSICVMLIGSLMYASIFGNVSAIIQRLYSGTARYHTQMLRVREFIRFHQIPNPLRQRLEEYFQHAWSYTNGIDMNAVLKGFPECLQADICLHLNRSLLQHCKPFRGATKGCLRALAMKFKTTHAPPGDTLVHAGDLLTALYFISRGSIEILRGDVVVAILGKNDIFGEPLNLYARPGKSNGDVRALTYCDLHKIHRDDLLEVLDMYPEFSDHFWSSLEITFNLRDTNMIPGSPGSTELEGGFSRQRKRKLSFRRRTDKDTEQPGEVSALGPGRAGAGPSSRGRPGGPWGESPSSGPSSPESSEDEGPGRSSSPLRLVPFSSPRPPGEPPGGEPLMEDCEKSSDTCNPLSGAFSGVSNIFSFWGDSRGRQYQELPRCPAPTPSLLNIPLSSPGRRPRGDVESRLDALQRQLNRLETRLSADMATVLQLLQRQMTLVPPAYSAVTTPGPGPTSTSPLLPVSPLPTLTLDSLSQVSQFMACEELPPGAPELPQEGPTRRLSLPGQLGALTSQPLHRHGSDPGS

T1 sequence (P23458 583-855 limits assumed): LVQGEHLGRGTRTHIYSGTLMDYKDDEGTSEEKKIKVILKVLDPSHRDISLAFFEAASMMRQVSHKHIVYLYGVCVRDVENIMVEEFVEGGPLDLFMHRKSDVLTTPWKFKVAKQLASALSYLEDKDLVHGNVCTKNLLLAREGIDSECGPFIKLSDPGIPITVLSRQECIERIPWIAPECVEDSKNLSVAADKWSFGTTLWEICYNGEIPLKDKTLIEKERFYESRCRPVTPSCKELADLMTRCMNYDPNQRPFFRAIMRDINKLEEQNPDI

| Compound | Kd [1] [µM] | IC50 [2] [µM] | IC50 [3] [µM] | IC50 (hERG) [µM] |
| --- | --- | --- | --- | --- |
| CNC(=O)c1nnc(NC(=O)N2CCC2)cc1Nc1cccc(-c2ncn(C)n2)c1OC [SHR8751] | 0.0037 ± 0.00014 | 0.048 | 0.46 | > 30 |
| [2H]C([2H])([2H])NC(=O)c1nnc(NC(=O)N2CCC2)cc1Nc1cccc(-c2ncn(C)n2)c1OC [SHR9332] | 0.0018 | 0.055 | 0.48 | > 30 |
| CNC(=O)c1nnc(NC(=O)C2CC2)c2[nH]c(-c3ccc(N)cc3OC)cc12 [SHR2396] | 0.00052 ± 0.0004 | 0.0097 |  |  |

— publication PMC9186491, “Novel Small Molecule Tyrosine Kinase 2 Pseudokinase Ligands Block Cytokine-Induced TYK2-Mediated Signaling Pathways” (Frontiers in Immunology, 2022)
